Values after ≈ are worked out from the molar mass of the structure shown. Values joined by “and” are separate entries in the source; they are usually repeats but may differ in a detail not shown here. Equal values may be shown once. Read-outs that look alike come from different tables or passages of the source.
Columns and labels:
[1] = test system: MCF-7 (estrogen receptor (ER) positive) human breast cancer cells; test: MTS antiproliferative/cytotoxicity assay on MCF-7 cells; settings: for MCF-7 IC50: 72 h treatment, mean ± S.D., vs DMSO 0.5% control; for antiproliferative / cytotoxic activity in words: against MCF-7 cells and MDA-MB 231 cells, 72 h of treatment
[2] = test system: MDA-MB-231 (ER negative) human breast cancer cells; test: MTS antiproliferative/cytotoxicity assay on MDA-MB-231 cells; format: cell-based; settings: Homo sapiens
[3] = read-out: IC50 MCF-7 48 h, 48 h
[4] = read-out: IC50 MCF-7 72 h, 72 h
[5] = read-out: IC50 MCF-7 96 h, 96 h
[6] = MDA-MB-231, 72 h, 72 h, read-out: IC50 MDA-MB-231 72 h
[7] = MDA-MB-231, 72 h, 72 h treatment, mean ± S.D., vs DMSO 0.5% control, read-out: MDA-MB-231 IC50
[8] = MDA-MB-231, 96 h, 96 h, read-out: IC50 MDA-MB-231 96 h
[9] = read-out: IC50 MCF-7 24 h, 24 h
[10] = MDA-MB-231, 24 h, 24 h, read-out: IC50 MDA-MB-231 24 h
[11] = MDA-MB-231, 48 h, read-out: IC50 MDA-MB-231 48 h, 48 h

Question: For `OCc1cc(CCCCCCCCCCCCc2ccc(O)c(CO)c2)ccc1O` [TRD5], which “IC50 MCF-7 48 h” value ([1]; 48 h) is on record?
Answer: Its value is 80.9 µg/mL (≈ 195 µM).

Question: And the “MCF-7 IC50” value [1]?
Answer: The value was 75.9 ± 1.9 µg/mL.

Question: What about the “IC50 MCF-7 96 h” value ([1]; 96 h) of the same compound?
Answer: The value was 66.5 µg/mL (≈ 160 µM).

Question: And the “antiproliferative / cytotoxic activity in words” value [1]?
Answer: Its value is “moderate cytotoxic activity”.

Question: And the IC50 [1, 3]?
Answer: Its IC50 is 195 µM.

Question: And the IC50 [1, 4]?
Answer: The IC50 was 183 µM.

Question: And the IC50 [1, 5]?
Answer: The IC50 was 160 µM.

Question: What about the IC50 [2, 6] of the same compound?
Answer: The IC50 was 81.6 µg/mL and 197 µM.

Question: What about the IC50 [2, 7] of the same compound?
Answer: Its IC50 is 62.9 to 77.4 µg/mL (≈ 152 to 187 µM).

Question: And the IC50 [2, 8]?
Answer: Its IC50 is 78.2 µg/mL and 189 µM.

Question: How did the IC50 [2, 6] turn out when `CCOC(=O)C(c1ccc(O)c(OC)c1)C(c1ccc(O)c(OC)c1)c1ccc(O)c(OC)c1` (stereo not shown) [QB57] was run?
Answer: Its IC50 is 85.1 µg/mL and 182 µM.

Question: And the IC50 [2, 7]?
Answer: Its IC50 is 85.1 ± 1.8 µg/mL (≈ 182 µM).

Question: What about the IC50 [2, 8] of the same compound?
Answer: The IC50 was 73.8 µg/mL and 158 µM.

Question: What does the source list for `COc1cc(C(O)c2ccccc2OC)ccc1OCc1ccccc1` (stereo not shown) [QB12]?
Answer: MCF-7 IC50 [1]: 65.0 ± 1.4 µg/mL; IC50 MCF-7 96 h ([1]; 96 h): 59.6 µg/mL (≈ 170 µM); antiproliferative / cytotoxic activity in words [1]: moderate cytotoxic activity; IC50 [1, 4]: 185 µM; IC50 [1, 5]: 170 µM; IC50 [2, 6]: 67.2 µg/mL and 192 µM; IC50 [2, 7]: 62.9 to 77.4 µg/mL (≈ 180 to 221 µM); IC50 [2, 8]: 58 µg/mL and 165 µM

Question: How did the “IC50 MCF-7 24 h” value ([1]; 24 h) turn out when `COc1ccc(C(O)(c2ccc(OC)c(C=O)c2)c2ccc(OC)c(C=O)c2)cc1C=O` [TRD8] was run?
Answer: The value was 42.0 µg/mL (≈ 96.7 µM).

Question: And the “IC50 MCF-7 48 h” value ([1]; 48 h)?
Answer: The value was 21.8 µg/mL (≈ 50.2 µM).

Question: And the “MCF-7 IC50” value [1]?
Answer: Its value is 10.6 ± 2.1 µg/mL.

Question: And the “IC50 MCF-7 96 h” value ([1]; 96 h)?
Answer: The value was 7.0 µg/mL (≈ 16.1 µM).

Question: What about the “antiproliferative / cytotoxic activity in words” value [1] of the same compound?
Answer: The value was “highest antiproliferative activities”.

Question: And the IC50 [1, 9]?
Answer: The IC50 was 96.7 µM.

Question: What about the IC50 [1, 3] of the same compound?
Answer: The IC50 was 50.1 µM.

Question: What about the IC50 [1, 4] of the same compound?
Answer: The IC50 was 24.3 µM.

Question: What about the IC50 [1, 5] of the same compound?
Answer: Its IC50 is 16.2 µM.

Question: What about the IC50 [2, 10] of the same compound?
Answer: The IC50 was 43.5 µg/mL and 100 µM.

Question: What about the IC50 [2, 11] of the same compound?
Answer: The IC50 was 27.8 µg/mL and 63.9 µM.

Question: And the IC50 [2, 6]?
Answer: The IC50 was 17.4 µg/mL and 40 µM.

Question: And the IC50 [2, 7]?
Answer: Its IC50 is 17.5 to 24 µg/mL (≈ 40.2 to 55.2 µM).

Question: And the IC50 [2, 8]?
Answer: The IC50 was 11.2 µg/mL and 25.8 µM.

Question: What does the source list for `COC(=O)c1cc(C(O)(c2ccc(O)c(C(=O)OC)c2)c2ccc(O)c(C(=O)OC)c2)ccc1O` [TRD1]?
Answer: IC50 MCF-7 24 h ([1]; 24 h): 94.2 µg/mL (≈ 195 µM); IC50 MCF-7 48 h ([1]; 48 h): 89.1 µg/mL (≈ 185 µM); MCF-7 IC50 [1]: 84.1 ± 3.4 µg/mL; IC50 MCF-7 96 h ([1]; 96 h): 78.3 µg/mL (≈ 162 µM); IC50 [1, 9]: 195 µM; IC50 [1, 3]: 185 µM; IC50 [1, 4]: 174 µM; IC50 [1, 5]: 162 µM; IC50 [2, 6]: 93.9 µg/mL and 195 µM; IC50 [2, 7]: 93.9 ± 2.4 µg/mL (≈ 195 µM); IC50 [2, 8]: 89.4 µg/mL and 185 µM

Question: Which results are given for `CCOC(=O)C(c1ccc(OCc2ccccc2)c(OC)c1)C(c1ccc(OCc2ccccc2)c(OC)c1)c1ccc(OCc2ccccc2)c(OC)c1` (stereo not shown) [QB56]?
Answer: MCF-7 IC50 [1]: 138.1 ± 3.1 µg/mL; IC50 MCF-7 96 h ([1]; 96 h): 124.9 µg/mL (≈ 169 µM); IC50 [1, 4]: 188 µM; IC50 [1, 5]: 170 µM; IC50 [2, 11]: 143 µg/mL and 195 µM; IC50 [2, 6]: 136 µg/mL and 185 µM; IC50 [2, 7]: 136 ± 3.7 µg/mL (≈ 184 µM); IC50 [2, 8]: 129 µg/mL and 176 µM

Question: What does the source list for `COc1ccc(C(O)(c2ccc(OC)c(Br)c2)c2ccc(OC)c(Br)c2)cc1Br` [TRD9]?
Answer: IC50 MCF-7 24 h ([1]; 24 h): 110.7 µg/mL (≈ 189 µM); IC50 MCF-7 48 h ([1]; 48 h): 102.5 µg/mL (≈ 175 µM); MCF-7 IC50 [1]: 91.4 ± 3.4 µg/mL; IC50 MCF-7 96 h ([1]; 96 h): 82.3 µg/mL (≈ 140 µM); IC50 [1, 9]: 189 µM; IC50 [1, 3]: 175 µM; IC50 [1, 4]: 156 µM; IC50 [1, 5]: 140 µM; IC50 [2, 10]: 115 µg/mL and 196 µM; IC50 [2, 11]: 108 µg/mL and 183 µM; IC50 [2, 6]: 97.8 µg/mL and 167 µM; IC50 [2, 7]: 97.8 ± 3.5 µg/mL (≈ 167 µM); IC50 [2, 8]: 89.9 µg/mL and 153 µM

Reference: patent US20140336259A1, “PHENOLIC COMPOUNDS WITH ANTIOXIDANT AND ANTI-CANCER PROPERTIES, ANALOGS AND SYNTHESIS THEREOF” (priority 2011, published 2014)
